Earlier results, collected in PubChem BioAssay AID1259410 (Chemical Carcinogenesis Research Information System (CCRIS), 2018).

Tested on: rodent tumor promotion studies, tumor incidence
Assay: CCRIS tumor promotion studies
Text: The CCRIS database contains chemical records with carcinogenicity, mutagenicity, tumor promotion, and tumor inhibition test results. It was developed by the National Cancer Institute (NCI). Data are derived from studies cited in primary journals, current awareness tools, NCI reports, and other sources. Test results have been reviewed by experts in carcinogenesis and mutagenesis.
CCRIS provides historical information from the years 1985 - 2011. It is no longer updated.
This is an archive assay for CCRIS tumor promotion studies.

**Q.** Which outcome (Carcinogen: DIETHYLNITROSAMINE, 55-18-5, N-METHYLNITROSOUREA, 684-93-3, DIHYDROXY-DI-N- PROPYLNITROSAMINE, 53609-64-6, Carcinogen: DIETHYLNITROSAMINE, 55-18-5, N-METHYLNITROSOUREA, 684-93-3, DIHYDROXY-DI-N- PROPYLNITROSAMINE, 53609-64-6, Doses [Carcinogen]: 100 MG/KG IN SALINE AT BEGINNING OF STUDY, 20 MG/KG IN CITRATE BUFFERED SOLUTION ON D 2, 5, 8 AND 11, 0.1% IN DRINKING, Doses [Carcinogen]: 100 MG/KG IN SALINE AT BEGINNING OF STUDY, 20 MG/KG IN CITRATE BUFFERED SOLUTION ON D 2, 5, 8 AND 11, 0.1% IN DRINKING, Doses [Promoter]: 0, 50 PPM IN DRINKING WATER BEGINNING POST SEQUENTIAL CARCINOGEN TREATMENT AND CONTINUING FOR DURATION OF STUDY (STUDY D, Route [Carcinogen]: IP, IP, ORAL, Route [Carcinogen]: IP, IP, ORAL, Route [Promoter]: ORAL, Species: RAT, Strain/Sex: F344/MALE) does the source give for `CCCCN(CCCC)N=O` here?
**A.** The outcome was “esophagus: papilloma, squamous cell carcinoma; tongue: papilloma”.

**Q.** And the outcome (Carcinogen: DIETHYLNITROSAMINE, 55-18-5, N-METHYLNITROSOUREA, 684-93-5, DIHYDROXY-DI-N- PROPYLNITROSAMINE, 53609-64-6, Carcinogen: DIETHYLNITROSAMINE, 55-18-5, N-METHYLNITROSOUREA, 684-93-5, DIHYDROXY-DI-N- PROPYLNITROSAMINE, 53609-64-6, Doses [Carcinogen]: 100 MG/KG IN SALINE AT BEGINNING OF STUDY, 20 MG/KG IN CITRATE BUFFERED SOLUTION ON D 2, 5, 8 AND 11, 0.1% IN DRINKING, Doses [Carcinogen]: 100 MG/KG IN SALINE AT BEGINNING OF STUDY, 20 MG/KG IN CITRATE BUFFERED SOLUTION ON D 2, 5, 8 AND 11, 0.1% IN DRINKING, Doses [Promoter]: 0, 50 PPM IN DRINKING WATER BEGINNING POST SEQUENTIAL CARCINOGEN TREATMENT AND CONTINUING FOR DURATION OF STUDY (STUDY D, Route [Carcinogen]: IP, IP, ORAL, Route [Carcinogen]: IP, IP, ORAL, Route [Promoter]: ORAL, Species: RAT, Strain/Sex: F344/MALE)?
**A.** The outcome was “lung: adenoma; esophagus: papilloma”.

**Q.** With `CCCCCC1(CCCCCC(=O)OC2C(C)C3(O)C(C=C(CO)CC4(O)C(=O)C(C)=CC43)C3C(C)(C)C23OC(C)=O)OCC(C)(C)N1[O]` (stereo not given) as the compound, how does the outcome (Carcinogen: 7,12-DIMETHYLBENZ[A]ANTHRACENE, 57-97-6, Doses [Carcinogen]: 100 NMOL ONCE, Doses [Promoter]: 0, 20 NMOL 2/WK FOR 24 WK BEGINNING 1 WK POST CARCINOGEN DOSE (STUDY DURATION: 25 WK), Route [Carcinogen]: DERMAL, Route [Promoter]: DERMAL, Species: MOUSE, Strain/Sex: NMRI/FEMALE) read?
**A.** Its outcome is “skin: tumor”.

**Q.** For `CCC1(c2ccccc2)C(=O)N=C(O)NC1=O` (stereo not given), which outcome (Carcinogen: 2-(ACETYLAMINO)FLUORINE, Doses [Carcinogen]: 0.02% IN DIET FOR 4 WK, Doses [Promoter]: 0.05% IN DIET FOR 32 WK, Route [Carcinogen]: ORAL, Route [Promoter]: ORAL, Species: RAT, Strain/Sex: F344/MALE) is on record?
**A.** Its outcome is “liver: hepatocellular carcinoma”.

**Q.** What about the outcome (Carcinogen: DIETHYLNITROSAMINE, 55-18-5, 2-ACETYLAMINOFLUORENE, 6292-55-3, CARBON TETRACHLORIDE, 56-23-5, Carcinogen: DIETHYLNITROSAMINE, 55-18-5, 2-ACETYLAMINOFLUORENE, 6292-55-3, CARBON TETRACHLORIDE, 56-23-5, Doses [Carcinogen]: 200 MG/KG ONCE FOLLOWED 2 WK LATER BY 0.03% 2-ACETYLAMINOFLUORENE IN DIET FOR 2 WK PLUS 2 ML/KG CARBON TETRACHLORIDE IN, Doses [Promoter]: 0.05% IN DIET STARTING 1 WK POST 2-ACETYLAMINOFLUORENE AND CONTINUED FOR 6 MO (STUDY DURATION: 7 MO), Route [Carcinogen]: INTRAPERITONEAL, ORAL, INTRAGASTRIC, Route [Carcinogen]: INTRAPERITONEAL, ORAL, INTRAGASTRIC, Route [Promoter]: ORAL, Species: RAT, Strain/Sex: WISTAR/MALE) of the same compound?
**A.** Its outcome is “liver: hepatocellular carcinoma”.

**Q.** What about the outcome (Carcinogen: DIETHYLNITROSAMINE, 55-18-5, Doses [Carcinogen]: 2.5, 10, 25, 50 UG/G IN SALINE ONCE ON DAY 15 OF AGE, Doses [Promoter]: 0, 500 PPM IN DRINKING WATER FROM 28 DAYS OF AGE TO 12, 24, 40 WK POST-WEANING (STUDY DURATION: 42 WK), Route [Carcinogen]: INTRAPERITONEAL, Route [Promoter]: ORAL, Species: MOUSE, Strain/Sex: BALB/MALE) of the same compound?
**A.** The outcome was “liver: adenoma”.

**Q.** What about the outcome (Carcinogen: DIETHYLNITROSAMINE, 55-18-5, N-METHYLNITROSOUREA, 684-93-5, DIHYDROXY-DI-N- PROPYLNITROSAMINE, 53604-64-6, Carcinogen: DIETHYLNITROSAMINE, 55-18-5, N-METHYLNITROSOUREA, 684-93-5, DIHYDROXY-DI-N- PROPYLNITROSAMINE, 53604-64-6, Doses [Carcinogen]: 100 MG/KG IN SALINE AT BEGINNING OF STUDY, 20 MG/KG IN CITRATE BUFFERED SOLUTION ON D 2, 5, 8 AND 11, 0.1% IN DRINKING, Doses [Carcinogen]: 100 MG/KG IN SALINE AT BEGINNING OF STUDY, 20 MG/KG IN CITRATE BUFFERED SOLUTION ON D 2, 5, 8 AND 11, 0.1% IN DRINKING, Doses [Promoter]: 0, 500 PPM IN DIET BEGINNING POST SEQUENTIAL CARCINOGEN TREATMENT AND CONTINUING FOR DURATION OF STUDY (STUDY DURATION:, Route [Carcinogen]: IP, IP, ORAL, Route [Carcinogen]: IP, IP, ORAL, Route [Promoter]: ORAL, Species: RAT, Strain/Sex: F344/MALE) of the same compound?
**A.** Its outcome is “thyroid: adenoma”.

**Q.** And the outcome (Carcinogen: DIETHYLNITROSAMINE, 55-18-5, N-METHYLNITROSOUREA, 684-93-5, DIHYDROXY-DI-N- PROPYLNITROSAMINE, 53609-64-6, Carcinogen: DIETHYLNITROSAMINE, 55-18-5, N-METHYLNITROSOUREA, 684-93-5, DIHYDROXY-DI-N- PROPYLNITROSAMINE, 53609-64-6, Doses [Carcinogen]: 100 MG/KG IN SALINE AT BEGINNING OF STUDY, 20 MG/KG IN CITRATE BUFFERED SOLUTION ON D 2, 5, 8 AND 11, 0.1% IN DRINKING, Doses [Carcinogen]: 100 MG/KG IN SALINE AT BEGINNING OF STUDY, 20 MG/KG IN CITRATE BUFFERED SOLUTION ON D 2, 5, 8 AND 11, 0.1% IN DRINKING, Doses [Promoter]: 0, 500 PPM IN DIET BEGINNING POST SEQUENTIAL CARCINOGEN TREATMENT AND CONTINUING FOR DURATION OF STUDY (STUDY DURATION:, Route [Carcinogen]: IP, IP, ORAL, Route [Carcinogen]: IP, IP, ORAL, Route [Promoter]: ORAL, Species: RAT, Strain/Sex: F344/MALE)?
**A.** Its outcome is “thyroid: adenoma”.

**Q.** And the outcome (Carcinogen: ETHYLNITROSOUREA, 759-73-9, Doses [Carcinogen]: 5 MG/KG ONCE AT 15 D OF AGE, Doses [Promoter]: 0, 500 PPM IN DRINKING WATER BEGINNING AT 5 WK OF AGE AND CONTINUING TO 51 WK OF AGE (STUDY DURATION: 52 WK), Route [Carcinogen]: INTRAPERITONEAL, Route [Promoter]: ORAL, Species: MOUSE, Strain/Sex: CD-1/FEMALE)?
**A.** The outcome was “liver: adenoma”.

**Q.** What about the outcome (Carcinogen: ETHYLNITROSOUREA, 759-73-9, Doses [Carcinogen]: 5 MG/KG ONCE AT 15 D OF AGE, Doses [Promoter]: 0, 500 PPM IN DRINKING WATER BEGINNING AT 5 WK OF AGE AND CONTINUING TO 51 WK OF AGE (STUDY DURATION: 52 WK), Route [Carcinogen]: INTRAPERITONEAL, Route [Promoter]: ORAL, Species: MOUSE, Strain/Sex: CD-1/MALE) of the same compound?
**A.** Its outcome is “liver: carcinoma”.

**Q.** What about the outcome (Carcinogen: ETHYLNITROSOUREA, 759-73-9, Doses [Carcinogen]: 20 MG/KG ONCE AT 15 D OF AGE, Doses [Promoter]: 0, 500 PPM IN DRINKING WATER BEGINNING AT 5 WK OF AGE AND CONTINUING TO 51 WK OF AGE (STUDY DURATION: 52 WK), Route [Carcinogen]: INTRAPERITONEAL, Route [Promoter]: ORAL, Species: MOUSE, Strain/Sex: CD-1/FEMALE) of the same compound?
**A.** The outcome was “liver: adenoma, carcinoma”.

**Q.** What about the outcome (Carcinogen: ETHYLNITROSOUREA, 759-73-9, Doses [Carcinogen]: 20 MG/KG ONCE AT 15 D OF AGE, Doses [Promoter]: 0, 500 PPM IN DRINKING WATER BEGINNING AT 5 WK OF AGE AND CONTINUING TO 51 WK OF AGE (STUDY DURATION: 52 WK), Route [Carcinogen]: INTRAPERITONEAL, Route [Promoter]: ORAL, Species: MOUSE, Strain/Sex: CD-1/MALE) of the same compound?
**A.** Its outcome is “liver: carcinoma”.

**Q.** And the outcome (Carcinogen: N-BIS(2-HYDROXYPROPYL)NITROSAMINE, 53609-64-6, Doses [Carcinogen]: 280 MG/100 G/BW ONCE, Doses [Promoter]: 0, 0.05% IN DRINKING WATER FOR 25 WK (STUDY DURATION: 26 WK), Route [Carcinogen]: SUBCUTANEOUS, Route [Promoter]: ORAL, Species: RAT, Strain/Sex: F344/MALE)?
**A.** The outcome was “thyroid: neoplasm”.

**Q.** And the outcome (Carcinogen: N-METHYL-N-NITROSOUREA, 684-93-5, Doses [Carcinogen]: 30 MG/KG BW ONCE, Doses [Promoter]: 0, 0.5% IN DRINKING WATER FOR DURATION OF STUDY BEGINNING POST CARCINOGEN DOSE(STUDY DURATION: 14 MO), Route [Carcinogen]: INTRAVENOUS, Route [Promoter]: ORAL, Species: RAT, Strain/Sex: LOBUND-WISTAR/MALE)?
**A.** The outcome was “lung: carcinoma, prostate/seminal vesicles: tumor”.

**Q.** For `CN(C)CCOc1ccc(/C(=C(/CCCl)c2ccccc2)c2ccccc2)cc1`, which outcome (Carcinogen: DIETHYLNITROSAMINE, 55-18-5, Doses [Carcinogen]: 2.5 UG/G BW IN SALINE ONCE, Doses [Promoter]: 0, 0.5-1 MG IN PELLET IMPLANTED 1/MONTH FOR 30 WK BEGINNING 30 D POST CARCINOGEN TREATMENT (STUDY DURATION: 240 D), Route [Carcinogen]: INTRAPERITIONEAL, Route [Promoter]: SUBCUTANEOUS, Species: MOUSE, Strain/Sex: B6C3F1/FEMALE) is on record?
**A.** The outcome was “liver: tumor”.
